According to US10035777B2, “Heterocyclic kinase inhibitors” (priority 2014, dated 2018):
Where two headings read alike, the source gives them in different places.

Molecular target: GST-Xa-hAAK1 (Homo sapiens (Human), UniProt Q2M2I8)
Assay: biochemical
Procedure: The assays were performed in U-bottom 384-well plates. […] The reactions were initiated by the combination of bacterially expressed, GST-Xa-hAAK1 with substrates and test compounds. The reactions were incubated at room temperature for 3 hours and terminated by adding 60 μl of 35 mM EDTA buffer to each sample. The reactions were analyzed on the Caliper LabChip 3000 (Caliper, Hopkinton, Mass.) by electrophoretic separation of the fluorescent substrate and phosphorylated product. […] Compounds were dissolved at 10 mM in dimethylsulfoxide (DMSO) and evaluated at eleven concentrations. IC50 values were derived by non-linear regression analysis.

[1] = ATP 22 μM, GST-Xa-hAAK1 3.5 nM, room temperature for 3 hours, Caliper LabChip 3000, read-out: AAK1 IC50

GST-Xa-hAAK1, sequence (Q2M2I8 whole entry): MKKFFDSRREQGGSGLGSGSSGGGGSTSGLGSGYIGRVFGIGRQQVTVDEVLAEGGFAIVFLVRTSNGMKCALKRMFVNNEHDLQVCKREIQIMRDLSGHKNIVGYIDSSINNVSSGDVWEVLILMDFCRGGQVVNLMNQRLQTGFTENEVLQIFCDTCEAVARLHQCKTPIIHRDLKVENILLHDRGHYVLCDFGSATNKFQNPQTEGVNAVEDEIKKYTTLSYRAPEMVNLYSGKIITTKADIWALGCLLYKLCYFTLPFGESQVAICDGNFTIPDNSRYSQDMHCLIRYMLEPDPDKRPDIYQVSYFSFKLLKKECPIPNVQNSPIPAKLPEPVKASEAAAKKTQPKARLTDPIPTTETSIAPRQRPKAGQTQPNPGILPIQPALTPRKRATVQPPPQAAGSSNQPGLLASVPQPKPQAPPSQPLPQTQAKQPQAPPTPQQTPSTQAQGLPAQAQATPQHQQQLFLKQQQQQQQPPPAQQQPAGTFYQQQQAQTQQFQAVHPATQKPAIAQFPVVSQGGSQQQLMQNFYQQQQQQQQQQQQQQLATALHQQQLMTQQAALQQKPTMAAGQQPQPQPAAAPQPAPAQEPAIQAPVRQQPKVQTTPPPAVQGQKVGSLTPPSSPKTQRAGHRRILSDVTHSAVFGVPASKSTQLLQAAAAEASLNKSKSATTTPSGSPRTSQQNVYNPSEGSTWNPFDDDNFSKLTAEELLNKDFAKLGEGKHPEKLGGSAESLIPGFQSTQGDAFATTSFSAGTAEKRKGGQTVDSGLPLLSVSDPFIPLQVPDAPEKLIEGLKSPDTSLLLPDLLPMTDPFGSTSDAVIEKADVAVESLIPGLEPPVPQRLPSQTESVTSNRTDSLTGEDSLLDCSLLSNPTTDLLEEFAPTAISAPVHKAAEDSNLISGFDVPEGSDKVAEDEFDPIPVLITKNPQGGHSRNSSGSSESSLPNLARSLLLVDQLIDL

`N[C@@H](c1nc2cc(-c3ccncc3)ccc2[nH]1)C1CC1` [Example 74, (R)-cyclopropyl (5-(pyridin-4-yl)-1H-benzo[d]imidazol-2-yl)methanamine] was tested, and the IC50 was 228 nM.

Work on `COc1cc(-c2cnco2)cc2nc([C@H](N)CC(C)C)[nH]c12` [Example 21, (R)-1-(7-methoxy-5-(oxazol-5-yl)-1H-benzo[d]imidazol-2-yl)-3-methylbutan-1-amine] yielded an IC50 [1] of 33 nM.

`CC(C)C[C@@H](N)c1nc2ccc(-c3cnco3)cc2n1CCO` [Example 41, (R)-2-(2-(1-amino-3-methylbutyl)-6-(oxazol-5-yl)-1H-benzo[d]imidazol-1-yl)ethanol] gave an IC50 [1] of 559 nM.

`CNc1cc(-c2ccc3[nH]c([C@@H](CC(C)C)NC)nc3c2)ccn1` [Example 61, (R)-N-methyl-4-(2-(3-methyl-1-(methylamino)butyl)-1H-benzo[d]imidazol-5-yl) pyridin-2-amine] gave an IC50 [1] of 8 nM.

In the case of `COCCn1c([C@H](N)CC(C)C)nc2ccc(-c3cnco3)cc21` [Example 39, (R)-1-(1-(2-methoxyethyl)-6-(oxazol-5-yl)-1H-benzo[d]imidazol-2-yl)-3-methylbutan-1-amine], the IC50 [1] is reported as 6740 nM.

With `C/C(=C\C(C)C)c1nc2cc(-c3ccncc3)ccc2o1` [Example 86, (E)-2-(4-methylpent-2-en-2-yl)-5-(pyridin-4-yl)benzo[d]oxazole] the IC50 (read-out: AAK1 IC50) was 2310 nM.

Work on `CC(C)C[C@@H](N)c1nc2cc(-c3ncnc4[nH]ccc34)ccc2[nH]1` [Example 8, (R)-1-(5-(7H-pyrrolo[2,3-d]pyrimidin-4-yl)-1H-benzo[d]imidazol-2-yl)-3-methylbutan-1-amine] yielded an IC50 [1] of 4 nM.

With `CC(C)C[C@@H](N)c1nc2cc(-c3ccnc4ccccc34)ccc2[nH]1` [Example 9, (R)-3-methyl-1-(5-(quinolin-4-yl)-1H-benzo[d]imidazol-2-yl)butan-1-amine] the IC50 [1] was 13 nM.

Work on `CC(C)C[C@@H](N)c1nc2cc(-c3ccnc(N)n3)ccc2[nH]1` [Example 16, (R)-4-(2-(1-amino-3-methylbutyl)-1H-benzo[d]imidazol-5-yl)pyrimidin-2-amine] yielded an IC50 [1] of 202 nM.

Work on `CCCn1c([C@H](N)CC(C)C)nc2ccc(-c3ccncc3)cc21` [Example 43, (R)-3-methyl-1-(1-propyl-6-(pyridin-4-yl)-1H-benzo[d]imidazol-2-yl)butan-1-amine] yielded an IC50 [1] of 103 nM.

`COc1cc(-c2ccc3[nH]c([C@H](N)CC(C)C)nc3c2)ccn1` [Example 13, (R)-1-(5-(2-methoxypyridin-4-yl)-1H-benzo[d]imidazol-2-yl)-3-methylbutan-1-amine] showed an IC50 (read-out: AAK1 IC50) of 171 nM.

In the case of `COc1cc2[nH]c(CC3CCCC3)nc2cc1-c1cnco1` [Example 69, 5-(2-(cyclopentylmethyl)-6-methoxy-1H-benzo[d]imidazol-5-yl) oxazole], the IC50 is reported as 57 nM.

In the case of `CC(C)(C)OCc1nc2ccc(-c3ccncc3)cc2[nH]1` [Example 55, 2-(tert-butoxymethyl)-6-(pyridin-4-yl)-1H-benzo[d]imidazole], the IC50 is reported as 1790 nM.

In the case of `CC(C)CCc1nc2ccc(-c3ccncc3)cc2[nH]1` [Example 106, 2-isopentyl-6-(pyridin-4-yl)-1H-benzo[d]imidazole], the IC50 [1] is reported as 115 nM.

`CN[C@H](CC(C)C)c1nc2cc(-c3ccnc(N(C)C)c3)ccc2[nH]1` [Example 75, (R)-N,N-dimethyl-4-(2-(3-methyl-1-(methylamino)butyl)-1H-benzo[d]imidazol-5-yl) pyridin-2-amine] showed an IC50 of 244 nM.

`COc1cc2[nH]c([C@H](N)C3CCCCC3)nc2cc1-c1cnco1` [Example 64, (R)-cyclohexyl(6-methoxy-5-(oxazol-5-yl)-1H-benzo[d]imidazol-2-yl)methanamine] was tested, and the IC50 [1] was 16 nM.

`COc1cnccc1-c1ccc2[nH]c([C@H](N)CC(C)C)nc2c1` [Example 11, (R)-1-(5-(3-methoxypyridin-4-yl)-1H-benzo[d]imidazol-2-yl)-3-methylbutan-1-amine] showed an IC50 [1] of 93 nM.

With `COCCn1c([C@H](N)CC(C)C)nc2ccc(-c3ccncc3)cc21` [Example 38, (R)-1-(1-(2-methoxyethyl)-6-(pyridin-4-yl)-1H-benzo[d]imidazol-2-yl)-3-methylbutan-1-amine] the IC50 [1] was 531 nM.

`CC1CC1c1nc2ccc(-c3ccncc3)cc2[nH]1` (centres unmarked) [Example 48, 2-(2-methylcyclopropyl)-6-(pyridin-4-yl)-1H-benzo[d]imidazole] showed an IC50 [1] of 897 nM.

`CC(C)C[C@@H](N)c1nc2cc(-c3cc(F)nc(F)c3)ccc2[nH]1` [Example 17, (R)-1-(5-(2,6-difluoropyridin-4-yl)-1H-benzo[d]imidazol-2-yl)-3-methylbutan-1-amine] was tested, and the IC50 [1] was 3940 nM.

Work on `CC(C)C[C@@H](N)c1nc2cc(-c3cnco3)ccc2[nH]1` [Example 4, (R)-3-methyl-1-(5-(oxazol-5-yl)-1H-benzo[d]imidazol-2-yl)butan-1-amine] yielded an IC50 of 52 nM.

For `CC(c1nc2cc(-c3ccncc3)ccc2[nH]1)N1CCOCC1` (centres unmarked) [Example 79, 4-(1-(5-(pyridin-4-yl)-1H-benzo[d]imidazol-2-yl)ethyl)morpholine], the IC50 was 591 nM.

With `CC(C)CC(C)c1nc2cc(-c3ccncc3)ccc2[nH]1` (centres unmarked) [Example 58, 2-(4-methylpentan-2-yl)-5-(pyridin-4-yl)-1H-benzo[d]imidazole] the IC50 [1] was 40 nM.

`COc1cnccc1-c1cc2nc([C@H](N)CC(C)C)[nH]c2cc1OC` [Example 27, (R)-1-(6-methoxy-5-(3-methoxypyridin-4-yl)-1H-benzo[d]imidazol-2-yl)-3-methylbutan-1-amine] was tested, and the IC50 (read-out: AAK1 IC50) was 2000 nM.

Work on `CC(C)CC(N)c1nc2cc(-c3ccncc3)ccc2o1` (centres unmarked) [Example 83, 3-methyl-1-(5-(pyridin-4-yl)benzo[d]oxazol-2-yl)butan-1-amine] yielded an IC50 [1] of 71 nM.

Work on `CN[C@H](CC(C)C)c1nc2cc(-c3ccnc(NC(C)=O)c3)ccc2[nH]1` [Example 63, (R)-N-(4-(2-(3-methyl-1-(methylamino)butyl)-1H-benzo[d]imidazol-5-yl)pyridin-2-yl)acetamide] yielded an IC50 of 14 nM.

`COc1cc(-c2cnco2)cc2[nH]c(CCC(C)C)nc12` [Example 26, 5-(2-isopentyl-4-methoxy-1H-benzo[d]imidazol-6-yl)oxazole] gave an IC50 [1] of 217 nM.

`CC(C)C[C@@H](N)c1nc2ccc(-c3ccncc3)cc2n1C` [Example 42, (R)-3-methyl-1-(1-methyl-6-(pyridin-4-yl)-1H-benzo[d]imidazol-2-yl)butan-1-amine] gave an IC50 [1] of 159 nM.

For `NC(CCC(F)(F)F)c1nc2cc(-c3ccncc3)ccc2o1` (centres unmarked) [Example 93, 4,4,4-trifluoro-1-(5-(pyridin-4-yl)benzo[d]oxazol-2-yl)butan-1-amine], the IC50 [1] was 136 nM.

With `COc1cnccc1-c1ccc2[nH]c(CCC(C)C)nc2c1` [Example 56, 2-isopentyl-5-(3-methoxypyridin-4-yl)-1H-benzo[d]imidazole] the IC50 [1] was 620 nM.

`COc1cc(-c2ccc3[nH]c([C@H](N)CC(C)C)nc3c2)c(F)cn1` [Example 20, (R)-1-(5-(5-fluoro-2-methoxypyridin-4-yl)-1H-benzo[d]imidazol-2-yl)-3-methylbutan-1-amine] was tested, and the IC50 [1] was 489 nM.

`CC(C)CCc1nc2ccc(-c3ccncc3)cc2o1` [Example 85, 2-isopentyl-6-(pyridin-4-yl)benzo[d]oxazole] showed an IC50 [1] of 833 nM.

`CC(C)C[C@@H](N)c1nc2cc(F)c(-c3cnco3)cc2[nH]1` [Example 31, (R)-1-(5-fluoro-6-(oxazol-5-yl)-1H-benzo[d]imidazol-2-yl)-3-methylbutan-1-amine] was tested, and the IC50 (read-out: AAK1 IC50) was 32 nM.

Compound `COc1cc(-c2ccncc2)cc2[nH]c(CCC(C)C)nc12` [Example 25, 2-isopentyl-4-methoxy-6-(pyridin-4-yl)-1H-benzo[d]imidazole] has an IC50 [1] of 380 nM.

In the case of `COc1cc2nc([C@H](N)CC(C)C)[nH]c2cc1-c1cnco1` [Example 29, (R)-1-(5-methoxy-6-(oxazol-5-yl)-1H-benzo[d]imidazol-2-yl)-3-methylbutan-1-amine], the IC50 is reported as 12 nM.

`CC(C)CC(C)c1nc2ccc(-c3ccncc3)cc2o1` (centres unmarked) [Example 87, 2-(4-methylpentan-2-yl)-6-(pyridin-4-yl)benzo[d]oxazole] showed an IC50 [1] of 92 nM.

For `Cc1n[nH]c(C)c1-c1ccc2[nH]c([C@H](N)CC(C)C)nc2c1` [Example 19, (R)-1-(5-(3,5-dimethyl-1H-pyrazol-4-yl)-1H-benzo[d]imidazol-2-yl)-3-methylbutan-1-amine], the IC50 [1] was 41 nM.

`COc1cc(-c2ccc3[nH]c(CCC(C)C)nc3c2)ccn1` [Example 57, 2-isopentyl-5-(2-methoxypyridin-4-yl)-1H-benzo[d]imidazole] showed an IC50 [1] of 1550 nM.

Compound `CC(C)CC(N)c1nc2cc(-c3ccncc3)ccc2s1` (centres unmarked) [Example 95, 3-methyl-1-(5-(pyridin-4-yl)benzo[d]thiazol-2-yl)butan-1-amine] has an IC50 [1] of 100 nM.

In the case of `COc1cc2nc([C@H](N)CC(C)C)[nH]c2cc1-c1ccncc1` [Example 47, (R)-1-(5-methoxy-6-(pyridin-4-yl)-1H-benzo[d]imidazol-2-yl)-3-methylbutan-1-amine], the IC50 is reported as 487 nM.

Compound `NC(CC(C(F)(F)F)C(F)(F)F)c1nc2cc(-c3ccncc3)ccc2o1` (centres unmarked) [Example 91, 4,4,4-trifluoro-1-(5-(pyridin-4-yl)benzo[d]oxazol-2-yl)-3-(trifluoromethyl)butan-1-amine] has an IC50 [1] of 391 nM.

`NC(CC(C(F)(F)F)C(F)(F)F)c1nc2ccc(-c3cnco3)cc2[nH]1` (centres unmarked) [Example 104, 4,4,4-trifluoro-1-(6-(oxazol-5-yl)-1H-benzo[d]imidazol-2-yl)-3-(trifluoromethyl)butan-1-amine] showed an IC50 [1] of 381 nM.

In the case of `c1cc(-c2ccc3[nH]c(CC4CCCC4)nc3c2)ccn1` [Example 99, 2-(cyclopentylmethyl)-5-(pyridin-4-yl)-1H-benzo[d]imidazole], the IC50 [1] is reported as 105 nM.

For `CC(C)C[C@@H](N)c1nc2cc(-c3ccncc3)ccc2[nH]1` [Example 1, (R)-3-methyl-1-(5-(pyridin-4-yl)-1H-benzo[d]imidazol-2-yl)butan-1-amine], the IC50 was 37 nM.
